Measurements as given in paper PMC6855212, “Antibacterial activity of synthetic 1,3‐bis(aryloxy)propan‐2‐amines against Gram‐positive bacteria” (MicrobiologyOpen, 2019).
≈ marks a conversion by molar mass, not a printed value. Where “and” joins values, the source holds several entries; their conditions need not be identical. Identical values can stand only once. Like-named read-outs stand apart in the source and are kept apart here. Values belong to the compound of their own block, whether it stands above or below them.

Key:
S. aureus = system: S. aureus; design: method as in CLSI, 2017; conditions: antimicrobials in clinical use; ref CLSI, 2017; cited from earlier work
E. faecalis = system: E. faecalis; design: method as in CLSI, 2017; conditions: antimicrobials in clinical use; ref CLSI, 2017; cited from earlier work
[1] = system: Streptococcus pyogenes ATCC 19615; test: MIC, broth microdilution; assay type: cell-based; conditions: for MIC: Streptococcus pyogenes, ATCC19615
Method: (§1) The antibacterial activity of the compounds was evaluated using the broth microdilution method in 96‐well microplates according to the Clinical and Laboratory Standards Institute protocol (CLSI, 2017). First, synthetic compounds were diluted in Mueller Hinton broth (MHB; Oxoid, Thermo Scientific, UK) to concentrations ranging from 20 to 2.5 μg/ml. The same volume of a bacterial suspension containing 10^5 CFU/ml was added to each of the previous solutions, resulting in final compound concentrations from 10 to 1.25 μg/ml. […] All conditions were tested in triplicate and the results shown are representative of three independent assays.

[2] = system: Enterococcus faecalis ATCC 29213; test: MIC, broth microdilution; assay type: cell-based
Method: as §1

[3] = system: Staphylococcus aureus ATCC 29212; test: MIC, broth microdilution; assay type: cell-based; conditions: for MIC: Staphylococcus aureus, ATCC29212
Method: as §1

MRSA strains = test: MIC, broth microdilution, MRSA strains taken together; assay type: cell-based; conditions: Staphylococcus aureus; over the six MRSA strains (CPD18: four out of six); read-out: MIC against MRSA strains
Method: as §1

[4] = Cytotoxicity, MTT reduction assay; assay type: cell-based; conditions: African green monkey, 48 hr
Method: The cytotoxicity of active compounds to mammalian cells was assessed using the MTT reduction assay (Mosmann, 1983). Vero and BSC‐40 cells were seeded in 96‐well plates (8 × 10^4 cells per well) and incubated at 37°C and 5% CO2 atmosphere. After 24 hr of incubation, 200 μL of fresh medium containing a serial dilution of compounds (10–1.25 μg/ml) were added to the plates. After 48 hr of incubation in the same conditions, 100 μL of MTT solution in MEM or DMEM (5 mg/ml) was added to each well and incubated for 3 hr at 37°C and 5% CO2 atmosphere. The medium was removed and 100 μL of DMSO was used to solubilize formazan crystals. Absorbance at 570 nm of each well was read using a spectrophotometer (VersaMax, Molecular Devices).

[5] = system: Gram‐positive bacteria (E. faecalis, S. aureus and S. pyogenes); test: MIC, broth microdilution, Gram‐positive bacteria taken together; assay type: cell-based; conditions: Staphylococcus aureus; over different bacterial strains, including MRSA where stated; read-out: MIC against Gram‐positive bacteria, summary
Method: as §1

S. pyogenes ATCC 19615 = test: MBC, plating of wells without growth; assay type: cell-based; conditions: Streptococcus pyogenes, ATCC19615; at least 99.9% inhibition of cell count
Method: (§2) After incubation at 35°C for 24 hr, the colonies were counted and the percentage of inhibition was calculated. MBC is defined as the lowest compound's concentration that inhibits at least 99.9% of the bacterial cell count compared to nontreated viability control (Clinical and Laboratory Standards Institute, 1999).

MRSA Strain 6613 [6] = test: MBC, plating of wells without growth; assay type: cell-based; conditions: Staphylococcus aureus
Method: as §2

S. aureus ATCC 29212 = test: MBC, plating of wells without growth; assay type: cell-based; conditions: Staphylococcus aureus, ATCC29212; at least 99.9% inhibition of cell count
Method: as §2

MRSA Strain 6154 [7] = test: MBC, plating of wells without growth; assay type: cell-based; conditions: Staphylococcus aureus
Method: as §2

MRSA Strain 5912 [8] = test: MBC, plating of wells without growth; assay type: cell-based; conditions: Staphylococcus aureus
Method: as §2

MRSA Strain 6100 [9] = test: MBC, plating of wells without growth; assay type: cell-based; conditions: Staphylococcus aureus
Method: as §2

MRSA Strain 5749 [10] = test: MBC, plating of wells without growth; assay type: cell-based; conditions: Staphylococcus aureus
Method: as §2

MRSA Strain 6613 [11] = test: MIC, broth microdilution; assay type: cell-based; conditions: Staphylococcus aureus, read-out: MIC MRSA Strain 6613
Method: as §1

MRSA Strain 6154 [12] = test: MIC, broth microdilution; assay type: cell-based; conditions: Staphylococcus aureus, read-out: MIC MRSA Strain 6154
Method: as §1

MRSA Strain 5912 [13] = test: MIC, broth microdilution; assay type: cell-based; conditions: Staphylococcus aureus, read-out: MIC MRSA Strain 5912
Method: as §1

MRSA Strain 6100 [14] = test: MIC, broth microdilution; assay type: cell-based; conditions: Staphylococcus aureus, read-out: MIC MRSA Strain 6100
Method: as §1

MRSA Strain 5749 [15] = test: MIC, broth microdilution; assay type: cell-based; conditions: Staphylococcus aureus, read-out: MIC MRSA Strain 5749
Method: as §1

MRSA = system: MRSA; design: method as in Baltch, Ritz, Bopp, Michelsen, & Smith, 2007; conditions: antimicrobials used in the clinic; ref Baltch, Ritz, Bopp, Michelsen, & Smith, 2007; cited from earlier work
MRSA ATCC 43300 = test: MIC, broth microdilution; assay type: cell-based; conditions: Staphylococcus aureus, read-out: MIC MRSA ATCC 43300
Method: as §1

[16] = 24 hr, 35°C, read-out: MIC Streptococcus pyogenes ATCC 19615
[17] = 24 hr, 35°C, read-out: MIC Staphylococcus aureus ATCC 29212

Compound: NC[C@H]1O[C@H](O[C@H]2[C@H](O)[C@@H](O[C@H]3O[C@H](CO)[C@@H](O)[C@H](N)[C@H]3O)[C@H](N)C[C@@H]2N)[C@H](O)[C@@H](O)[C@@H]1O [kanamycin]
- MIC S. aureus (S. aureus): 1 to 4 µg/mL
- MIC E. faecalis (E. faecalis): 16 to 64 µg/mL

Compound: CC(C)(O/N=C(\C(=O)N[C@@H]1C(=O)N2C(C(=O)[O-])=C(C[n+]3ccccc3)CS[C@H]12)c1csc(N)n1)C(=O)O [ceftazidime]
- MIC S. aureus (S. aureus): 4 to 16 µg/mL

- MIC [1, 16]: 0.24 µM
- MIC ([2]; Enterococcus faecalis, ATCC29213, 24 hr, 35°C, — = no activity up to 10 μg/ml, read-out: MIC Enterococcus faecalis ATCC 29213): 5.98 µM (≈ 2 µg/mL)
- MIC [3, 17]: 0.06 µM
Compound: CC1(C)S[C@@H]2[C@H](NC(=O)Cc3ccccc3)C(=O)N2[C@H]1C(=O)O [Penicillin G, reference compound]

Compound: CC1(C)S[C@@H]2[C@H](NC(=O)C(C(=O)O)c3ccccc3)C(=O)N2[C@H]1C(=O)O (stereo partly shown) [carbenicillin]
- MIC S. aureus (S. aureus): 2 to 8 µg/mL
- MIC E. faecalis (E. faecalis): 16 to 64 µg/mL

Compound: O=C(N[C@H](CO)[C@H](O)c1ccc([N+](=O)[O-])cc1)C(Cl)Cl [chloramphenicol]
- MIC S. aureus (S. aureus): 2 to 16 µg/mL
- MIC E. faecalis (E. faecalis): 4 to 16 µg/mL

- MIC [5]: 10 µg/mL and 26.3 µM
- MIC (MRSA Strain 6613 [11]; clinical strain): 26.3 µM (≈ 9.04 µg/mL)
- MIC [1, 16]: 26.3 µM
- MIC ([1]; read-out: MIC against S. pyogenes): 10 µg/mL
- MIC (MRSA Strain 6154 [12]; clinical strain): 26.3 µM (≈ 9.04 µg/mL)
- MIC [3, 17]: 26.3 µM
- MIC ([3]; read-out: MIC against S. aureus): 10 µg/mL
- MIC (MRSA Strain 5912 [13]; clinical strain): 13.2 µM (≈ 4.52 µg/mL)
- MIC (MRSA Strain 6100 [14]; clinical strain, — = no activity up to 10 μg/ml): 26.3 µM (≈ 9.04 µg/mL)
- MIC (MRSA Strain 5749 [15]; clinical strain): 26.3 µM (≈ 9.04 µg/mL)
Compound: NC(COc1ccc2ccccc2c1)COc1ccc2ccccc2c1 [CPD21]
- MIC (MRSA strains): 5 µg/mL to 10 µg/mL and 13.2 µM to 26.3 µM
- CC50 at 48 h ([4]; BSC-40 cells, BSC‐40, MTT, read-out: CC50): 5.06 ± 1.13 µg/mL
- CC50 at 48 h ([4]; BSC-40 cells, BSC‐40, MTT, read-out: CC50 ± SD): 13.3 ± 2.97 µM
- CC50 at 48 h ([4]; Vero cells, MTT, read-out: CC50 ± SD): 11.3 ± 2.58 µM
- MBC (S. pyogenes ATCC 19615): 26.3 µM (≈ 9.04 µg/mL)
- MBC (MRSA Strain 6613 [6]): 26.3 µM (≈ 9.04 µg/mL)
- MBC (S. aureus ATCC 29212): 26.3 µM (≈ 9.04 µg/mL)
- MBC (MRSA Strain 6154 [7]): 26.3 µM (≈ 9.04 µg/mL)
- MBC (MRSA Strain 5912 [8]): 13.2 µM (≈ 4.52 µg/mL)
- MBC (MRSA Strain 6100 [9]): 26.3 µM (≈ 9.04 µg/mL)
- MBC (MRSA Strain 5749 [10]): 26.3 µM (≈ 9.04 µg/mL)
- Antibacterial activity in initial screening, S. pyogenes ([1]; concentration of 10 μg/ml): showed activity
- Antibacterial activity in initial screening, E. faecalis ([2]; concentration of 10 μg/ml): not observed
- Antibacterial activity in initial screening, S. aureus ([3]; concentration of 10 μg/ml): showed activity

Compound: CN[C@H](CC(C)C)C(=O)N[C@H]1C(=O)N[C@@H](CC(N)=O)C(=O)N[C@H]2C(=O)N[C@H]3C(=O)N[C@H](C(=O)N[C@H](C(=O)O)c4cc(O)cc(O)c4-c4cc3ccc4O)[C@H](O)c3ccc(c(Cl)c3)Oc3cc2cc(c3O[C@@H]2O[C@H](CO)[C@@H](O)[C@H](O)[C@H]2O[C@H]2C[C@](C)(N)[C@H](O)[C@H](C)O2)Oc2ccc(cc2Cl)[C@H]1O [Vancomycin, reference compound]
- MIC S. aureus (S. aureus): 0.5 to 2 µg/mL
- MIC E. faecalis (E. faecalis): 1 to 4 µg/mL
- MIC MRSA (MRSA): 2 µg/mL (≈ 1.38 µM)
- MIC (MRSA Strain 6613 [11]): 1.38 µM (≈ 2 µg/mL)
- MIC (MRSA Strain 6154 [12]): 1.38 µM (≈ 2 µg/mL)
- MIC (MRSA ATCC 43300): 1.38 µM (≈ 2 µg/mL)
- MIC (MRSA Strain 5912 [13]): 1.38 µM (≈ 2 µg/mL)
- MIC (MRSA Strain 6100 [14]): 1.38 µM (≈ 2 µg/mL)
- MIC (MRSA Strain 5749 [15]): 1.38 µM (≈ 2 µg/mL)

- melting point: 145.3 to 147.2 °C
Compound: Cc1ccc(S(=O)(=O)OC(COc2ccc(Cl)cc2)COc2ccc(Cl)cc2)cc1 [CPD39, 1,3‐bis(4‐chlorophenoxy)propan‐2‐yl 4‐methylbenzenesulfonate]

Compound: CCN1CCN(C(=O)N[C@@H](C(=O)N[C@@H]2C(=O)N3[C@@H]2SC(C)(C)[C@@H]3C(=O)O)c2ccccc2)C(=O)C1=O [piperacillin]
- MIC S. aureus (S. aureus): 1 to 4 µg/mL
- MIC E. faecalis (E. faecalis): 1 to 4 µg/mL

- melting point: 62.6 to 64.8 °C
Compound: Clc1ccc(OCC(COc2ccc(Cl)cc2)N2CCOCC2)cc1 [CPD34, 4‐(1,3‐Bis(4‐chlorophenoxy)propan‐2‐yl)morpholine]

Compound: NCC[C@H](O)C(=O)N[C@@H]1C[C@H](N)[C@@H](O[C@H]2O[C@H](CN)[C@@H](O)[C@H](O)[C@H]2O)[C@H](O)[C@H]1O[C@H]1O[C@H](CO)[C@@H](O)[C@H](N)[C@H]1O [amikacin]
- MIC S. aureus (S. aureus): 1 to 4 µg/mL
- MIC E. faecalis (E. faecalis): 64 to 256 µg/mL

- melting point: 83.7 to 84.4 °C
Compound: CS(=O)(=O)OC(COc1ccc(Cl)c(Cl)c1)COc1ccc(Cl)c(Cl)c1 [CPD30, 1,3‐Bis(3,4‐dichlorophenoxy)propan‐2‐yl methanesulfonate]

- melting point: 95.6 to 96.3 °C
Compound: [N-]=[N+]=NC(COc1ccc(Cl)c(Cl)c1)COc1ccc(Cl)c(Cl)c1 [CPD31, 1,3‐Bis(3,4‐dichlorophenoxy)propan‐2‐yl azide]

Compound: CC(=O)NC[C@H]1CN(c2ccc(N3CCOCC3)c(F)c2)C(=O)O1 [linezolid]
- MIC S. aureus (S. aureus): 1 to 4 µg/mL
- MIC E. faecalis (E. faecalis): 1 to 4 µg/mL

Compound: COc1cccc(OC)c1C(=O)N[C@@H]1C(=O)N2[C@@H]1SC(C)(C)[C@@H]2C(=O)O [methicillin]
- MIC E. faecalis (E. faecalis): > 16 µg/mL

Compound: CCCCCCCCCC(=O)N[C@@H](Cc1c[nH]c2ccccc12)C(=O)N[C@H](CC(N)=O)C(=O)N[C@@H](CC(=O)O)C(=O)N[C@@H]1C(=O)NCC(=O)N[C@@H](CCCN)C(=O)N[C@@H](CC(=O)O)C(=O)N[C@H](C)C(=O)N[C@@H](CC(=O)O)C(=O)NCC(=O)N[C@H](CO)C(=O)N[C@@H]([C@H](C)CC(=O)O)C(=O)N[C@@H](CC(=O)c2ccccc2N)C(=O)O[C@@H]1C [daptomycin]
- MIC MRSA (MRSA): 0.5 µg/mL (≈ 0.309 µM)

- melting point: 103.4 to 105.7 °C
Compound: OC(COc1ccc(Cl)c(Cl)c1)COc1ccc(Cl)c(Cl)c1 [CPD29, 1,3‐Bis(3,4‐dichlorophenoxy)propan‐2‐ol]

Compound: Cc1onc(-c2ccccc2)c1C(=O)N[C@@H]1C(=O)N2[C@@H]1SC(C)(C)[C@@H]2C(=O)O [oxacillin]
- MIC MRSA (MRSA): 16 µg/mL (≈ 39.9 µM)

Compound: CNC(C)C1CCC(N)C(OC2C(N)CC(N)C(OC3OCC(C)(O)C(NC)C3O)C2O)O1 (stereo not shown) [gentamicin]
- MIC MRSA (MRSA): 128 µg/mL (≈ 268 µM)
